Results reported in patent US20230045737A1, “SUBSTITUTED ISOINDOLINONES AS MODULATORS OF CEREBLON-MEDIATED NEO-SUBSTRATE RECRUITMENT” (Vividion Therapeutics, Inc., priority 2018, published 2023).

Biological target: CRBN-DDB1 (Homo sapiens, UniProt Q96SW2)
Assay: CRBN Fluorescence Polarization Assay with BODIPY-IMid Tracer
Assay type: binding
Parameters: unit not given here
Settings: competition with 30 nM BODIPY-IMiD tracer for 500 nM CRBN-DDB1, 3-fold serial dilution
Protocol: Promega assay was used to compare bifunctional ligands of the present invention to compete with IMiDs tracer binding to CRBN.
25 uM BODIPY-IMiD tracer (aliquots from Promega 160 uM stock solution)
Buffer: 100 mM Tris pH7.5, 150 mM NaCl, no DTT
Plates: PCR plate 96-well, Black 384-well
384-well plate 20 uL total volume
10 uL of CRBN-DDB1, BODIPY-IMiD added to 10 uL of ligand
A full 384-well assay plate was used to test bifunctional compounds with and without protein, Pomalidomide used as a control. Two 96-well PCR plates were prepared as follows: • 1. Plate 1 • a. To wells A1-A11 on a 96-well PCR plate 100 uM bifunctional compound was added to 40 uL total volume • i. 38 uL of buffer was added • ii. 2 uL was added of 2 mM bifunctional or IMiD compound in DMSO or 2 uL of 0.2 mM for CC220 analogs • b. To well A12 Pomalidomide was added as control • i. 38 uL buffer was added • ii. 2 uL of 2 mM Pomalidomide in DMSO was added • 2. Plate 2 • a. To wells A1-A10 on a 96-well PCR plate 100 uM bifunctional compound was added to 40 uL total volume • i. 38 uL of buffer was added • ii. 2 uL of 2 mM bifunctional compound in DMSO was added • b. To well A11 CC220 control was added • i. 38 uL buffer added • ii. 2 uL of 0.2 mM for CC220 was added • c. To well A12 DMSO control was added • i. Added buffer to 38 uL • ii. Added 2 uL of DMSO • 3. Prepared 7 mL of Buffer with 5% DMSO for serial dilution • a. 26.67 uL to rows B-H on 96-well plate • 4. Serial dilutions of samples in row A1 3-fold • a. 13.3 uL of A1 added to 26.67 uL in A2 • 5. Added 10 uL to 384-well plate • a. Added A1 from Plate 1 to wells A1 and A2 on 384-well plate (top half of 384-well plate) • b. Added A1 from Plate 2 to wells I1 and I2 on 384-well plate ([…] of 384-well plate)
A preparation was made of 500 nM CRBN-DDB1, 30 nM IMiD complex. To 4 mL of the prepared 500 nM CRBN-DDB1, 30 nM BODIPY-IMiD was added 47.6 uL of 46 uM CRBN-DDB1, 3.752 mL of Buffer (4 additions of 938 uL), 200 uL of DMSO, and 4.8 uL of 25 uM BODIPY IMiD stock. This incubated at room temperature for 10 minutes and then 10 uL was added to all wells on 384-well plate except wells M23-24, N23-24, O23-24, P23-24. Gain Control samples were then made consisting of 950 uL of Buffer, 50 uL of DMSO, 1.2 uL of 25 uM BODIPY IMiD stock, and 10 uL was added to wells M23-24, N23-24, O23-24, P23-24.

CRBN-DDB1, sequence (Q96SW2 whole entry): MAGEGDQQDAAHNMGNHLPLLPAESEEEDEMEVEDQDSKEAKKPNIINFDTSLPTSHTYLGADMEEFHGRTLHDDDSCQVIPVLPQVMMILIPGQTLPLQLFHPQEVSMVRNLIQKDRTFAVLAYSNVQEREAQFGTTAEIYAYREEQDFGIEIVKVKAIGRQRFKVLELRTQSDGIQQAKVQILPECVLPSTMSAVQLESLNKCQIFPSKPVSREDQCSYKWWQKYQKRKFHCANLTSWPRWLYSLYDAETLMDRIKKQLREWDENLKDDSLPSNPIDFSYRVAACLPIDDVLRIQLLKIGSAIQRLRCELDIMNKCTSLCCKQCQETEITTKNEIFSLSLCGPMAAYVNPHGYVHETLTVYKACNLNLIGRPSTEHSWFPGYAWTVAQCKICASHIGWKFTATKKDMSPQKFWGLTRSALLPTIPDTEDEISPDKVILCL
CRBN-DDB1, sequence (Q16531 whole entry partner): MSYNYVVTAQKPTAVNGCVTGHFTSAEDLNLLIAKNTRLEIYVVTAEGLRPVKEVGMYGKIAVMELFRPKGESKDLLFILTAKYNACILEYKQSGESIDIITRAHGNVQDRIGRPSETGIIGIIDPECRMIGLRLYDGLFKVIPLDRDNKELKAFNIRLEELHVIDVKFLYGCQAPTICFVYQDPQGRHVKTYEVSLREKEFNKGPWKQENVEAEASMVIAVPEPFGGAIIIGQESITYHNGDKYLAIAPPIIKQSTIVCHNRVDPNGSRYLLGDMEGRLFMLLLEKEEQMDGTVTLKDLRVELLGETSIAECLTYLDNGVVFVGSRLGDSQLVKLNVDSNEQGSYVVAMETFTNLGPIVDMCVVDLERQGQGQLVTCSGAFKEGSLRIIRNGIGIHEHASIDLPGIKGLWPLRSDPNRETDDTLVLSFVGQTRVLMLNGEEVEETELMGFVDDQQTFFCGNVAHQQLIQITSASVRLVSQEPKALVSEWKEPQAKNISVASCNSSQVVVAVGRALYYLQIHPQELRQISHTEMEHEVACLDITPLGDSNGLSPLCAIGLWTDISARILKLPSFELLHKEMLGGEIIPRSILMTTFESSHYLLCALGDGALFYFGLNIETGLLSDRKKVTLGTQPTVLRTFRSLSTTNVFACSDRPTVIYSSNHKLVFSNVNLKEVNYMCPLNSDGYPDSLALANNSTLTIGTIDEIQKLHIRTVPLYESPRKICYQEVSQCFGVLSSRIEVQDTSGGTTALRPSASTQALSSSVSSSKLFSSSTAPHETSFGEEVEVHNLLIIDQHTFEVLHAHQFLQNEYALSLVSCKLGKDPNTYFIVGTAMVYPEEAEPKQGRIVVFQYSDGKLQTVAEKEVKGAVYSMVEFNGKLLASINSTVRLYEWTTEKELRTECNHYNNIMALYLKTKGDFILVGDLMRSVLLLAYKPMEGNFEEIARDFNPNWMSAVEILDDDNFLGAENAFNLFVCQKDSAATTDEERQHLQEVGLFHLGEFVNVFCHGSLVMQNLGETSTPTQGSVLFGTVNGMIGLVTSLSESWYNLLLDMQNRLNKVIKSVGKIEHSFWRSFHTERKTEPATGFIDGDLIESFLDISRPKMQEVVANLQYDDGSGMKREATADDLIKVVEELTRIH

Compared with O=C1CC[C@H](N2Cc3c(OCc4ccc(Br)cc4)cccc3C2=O)C(=O)N1 [(S)-3-(4-((4-bromobenzyl)oxy)-1-oxoisoindolin-2-yl)piperidine-2,6-dione], O=C1CCC(N2Cc3c(OCc4ccc(Cn5ccnc5)cc4)cccc3C2=O)C(=O)N1 (stereo not drawn) [3-(4-((4-((1H-imidazol-1-yl)methyl)benzyl)oxy)-1-oxoisoindolin-2-yl)piperidine-2,6-dione] is lower in Result: 0.25 for the first, 0.16 for the second.

Going from COC(=O)C1CCN(Cc2ccc(COc3cccc4c3CN(C3CCC(=O)NC3=O)C4=O)cc2)CC1 (stereo not drawn) [methyl 1-(4-(((2-(2,6-dioxopiperidin-3-yl)-1-oxoisoindolin-4-yl)oxy)methyl)benzyl)piperidine-4-carboxylate] to COC(=O)C1CCN(Cc2ccc(COc3cccc4c3CN(C3CCC(=O)NC3=O)C4=O)cc2)C1 (stereo not drawn) [methyl 1-(4-(((2-(2,6-dioxopiperidin-3-yl)-1-oxoisoindolin-4-yl)oxy)methyl)benzyl)pyrrolidine-3-carboxylate], the Result rises from 0.05 to 0.14.

First: O=C1CCC(N2Cc3c(OCc4cc(CN5CCOCC5)ccn4)cccc3C2=O)C(=O)N1 (stereo not drawn) [3-(4-((4-(morpholinomethyl)pyridin-2-yl)methoxy)-1-oxoisoindolin-2-yl)piperidine-2,6-dione]
Second: O=C1CC[C@@H](N2Cc3c(OCc4ccc(CN5CCOCC5)cc4)cccc3C2=O)C(=O)N1
The Result of the first is higher: 0.94 for the first, 0.16 for the second.

Going from COC(=O)C1CCCN(Cc2ccc(COc3cccc4c3CN(C3CCC(=O)NC3=O)C4=O)cc2)C1 (stereo not drawn) [methyl 1-(4-(((2-(2,6-dioxopiperidin-3-yl)-1-oxoisoindolin-4-yl)oxy)methyl)benzyl)piperidine-3-carboxylate] to O=C1CC[C@H](N2Cc3c(OCc4ccccc4)ccc(Br)c3C2=O)C(=O)N1 [(S)-3-(4-(benzyloxy)-7-bromo-1-oxoisoindolin-2-yl)piperidine-2,6-dione], the Result rises from 0.06 to 0.1.

Compared with COc1ccc2c(c1)C(=O)N(C1CCC(=O)NC1=O)C2 (stereo not drawn) [3-(6-methoxy-1-oxoisoindolin-2-yl)piperidine-2,6-dione], O=C1CCC(N2Cc3c(OCCO)cccc3C2=O)C(=O)N1 (stereo not drawn) [3-(4-(2-hydroxyethoxy)-1-oxoisoindolin-2-yl)piperidine-2,6-dione] is lower in Result: 1.43 for the first, 0.93 for the second.

Compared with Nc1cccc2c1C(=O)N(C1CCC(=O)NC1=O)C2=O (stereo not drawn) [Pomalidomide, pomalidomide, reference compound], O=C1CC[C@H](N2Cc3cc(OCc4ccccc4)ccc3C2=O)C(=O)N1 [(S)-3-(5-(benzyloxy)-1-oxoisoindolin-2-yl)piperidine-2,6-dione] is lower in Result: 1.57 for the first, 0.54 for the second.
